Tests used:
[1] = test system: 11 month-old C57B1/6 mice; assay: % of alternation in T-maze test, healthy mice (short term memory); format: in vivo; conditions: administered once 2 hours before the test, very low doses (mix doses 4 and 5), FIG. 2
Protocol: 11 month-old C57B1/6 mice are used. They are group-housed (5-10 mice per cage) and maintained in a room with controlled temperature (21-22° C.) and a reversed light-dark cycle (12 h/12 h; lights on: 17:30-05:30; lights off: 05:30-17:30) with food and water available ad libitum.
Drugs are solubilized in water and freshly prepared just before each gavage or ip administration and are kept under agitation.
Doses of drugs of the invention are exemplified in table 4. Concerning acamprosate calcium, the indicated doses refer to the doses of the salt of molecule.
Between day 0 and day 7, drug combinations or the vehicle solution were administered twice daily (at 8:00 am and 6:00 pm). One animal group receives donepezil (reference compound 0.3 mg/kg) at 8:00 am and the vehicle at 6:00 pm.
On day 8, all animals were tested for the % of alternation performance in the T-maze test, 2 hours after the administration of drugs combination or the vehicle solution.
The eve of the test, drug combinations or the vehicle solution were administered at 8:00 am and 6:00 pm. […]
The effect of the administration of combinations on short term memory was assessed for different durations of treatment (7 days, 1 day, 2 hours before the test). […]
The percent spontaneous alternation was calculated as the number of spontaneous alternations divided by the number of free-choice trials. […]

clinical = conditions: human, in vivo, po
Description: Pharmacodynamics of baclofen and acamprosate have been established in the frame of clinical trial.

Compound | improvement of learning and working memory performances vs vehicle [1] | Tmax (clinical) [h]
NCC(CC(=O)O)c1ccc(Cl)cc1 (racemic) [baclofen, Baclofen] | no significant improvement | 1.5
CC(=O)NCCCS(=O)(=O)O [acamprosate, Acamprosate] | no significant improvement | 1.5 to 2

Source: patent publication US9789098B2, “Nootropic compositions for improving memory performance” (Pharnext, priority 2012, dated 2017)
